Results taken from patent US6448246B1 (dated 2002).

melting point: 160 to 162 °C
SMILES: O=C(NCc1ccccc1)C1C=Nc2ccccc2S1 (stereo not shown)
